Data on 2 sequences can be found in EP4700040A1, “PEPTIDE AND LUMINESCENT COMPLEX CONTAINING SAME” (Shenzhen Loggene Life Science & Technology Co., Ltd., priority 2023, dated 2024).

The test system of assay [1] is PCT. The experiment in a line: Complementary activity of small subunits mutated at conserved positions, Furimazine substrate (Example 6). The format is biochemical, human. To be noted: MBP-PCT 3.3 ng/ml, supernatant. As to the method: Detection Methods: • (1) The concentration of large subunit-rSCFV5 fusion protein was diluted to 12.5 nM, and 15 µl was added per well; • (2) MBP-PCT fusion protein was diluted to 3.3 ng/ml with PBSAD, and 10 µl was added per well; • (3) HB2151 strain containing plasmids with different small subunit sequences were induced by IPTG at 30°C overnight, then treated with polymyxin B for 1.5h, and centrifuged to collect the supernatant, and 2.5µl supernatant was added per well; • (4) The above three components were slightly mixed, incubated at 37°C for 7 min, and Obuffer 6.37-3 containing Furimazine at a concentration of 25 µM was added, […], the luminescence signal value was detected using a bioluminescence detector; and • (5) Clones with RLU higher than 10,000 were picked. The substrate was replaced with CTZ-h substrate for retesting (Obuffer 6.37-3 containing CTZ-h at a concentration of 25 µM was added, and after 60 s, the luminescence signal value was detected using a bioluminescence detector), and a PBSAD control was added to test the signal-to-noise ratio.
In order to further determine whether these three conserved amino acid sequences were changed, this example constructed a random mutation library of these three positions, with a theoretical diversity of 8,000 and a library capacity of 10^6, and 2,000 single clones were picked. The method of protein induction and expression was the same as that in Example 1. The complementary activity was tested in the same manner as that in Example 4, but the signal-to-noise ratio was not retested with CTZ-h. Clones with different activity were randomly picked for sequencing.

The subject of assay [2] is human interleukin 6 (human IL6). In words: Luciferase dual-antibody complementary activation assay for human IL6 (Example 7). The settings on record: estimated by ((mean+3SD)-RLU0.5)/(RLU5-RLU0.5)*4.5+0.5. In kind it is biochemical. An excerpt: Expression and purification of human IL6 recombinant protein: An expression vector of human IL6 (UniProtKB ID: P05231, AA29~212) with six histidine-tagged (C-terminal) fusion proteins (SEQ ID NO: 90) was constructed. The fusion protein was recombinantly expressed in E. coli, and purified with nickel column. The protein purity was detected by denaturing SDS-polyacrylamide gel electrophoresis, and the protein concentration was detected by nucleic acid-protein quantification instrument.
Expression and purification of a fusion protein of the small and large subunits with IL6 antibody: prokaryotic expression plasmids of the fusion protein RB073-449-1 (SEQ ID NO: 91) of the small subunit peptide RB073 with human IL6 SCFV antibody 449-1, and the fusion protein OL-453 (SEQ ID NO: 92) of the large subunit with human IL6 SCFV antibody 453 were constructed. The fusion proteins were recombinantly expressed in E. coli, and purified with nickel column. The protein purity was detected by denaturing SDS-polyacrylamide gel electrophoresis, and the protein concentration was detected by nucleic acid-protein quantification instrument.
Test Methods • (1) Recombinant human IL6 protein was diluted with PBSA in 10-fold gradient starting from 5000 pg/ml, with 5 gradients in total. […]

Assay [3] deals with PCT. The experiment in a line: Sensitivity and linear range for PCT detection of preferred small subunits (Example 5). In kind it is biochemical, human. The settings on record: for luminescence value: normalized. As to the method: Detection Methods: • (1) The concentration of large subunit-rSCFV5 fusion protein was diluted with PBSA to 8.3~25nM, and 15µl was added per well; • (2) MBP-PCT fusion proteins were diluted with PBSAD in a downward gradient starting from 2.5 µg/ml, and 10 µl was added per well; • (3) The rSCFV18-small subunit mutant-containing fusion protein was diluted with PBSA to 30~180 nM, and 15 µl was added per well; • (4) The above three components were slightly mixed, incubated at 37°C for 15 min, and Obuffer 6.37-3 containing CTZ-h at a concentration of 15 µM was added, and the luminescence signal value was immediately detected using a bioluminescence detector (the luminescence value was normalized);

In assay [4] the test system is PCT. The experiment in a line: Second library screening for PCT detection, clone supernatants, retest with CTZ-h (Example 4). In kind it is biochemical, human. As to the method:
In order to further improve the signal-to-noise ratio and complementary activity of the luciferase dual-antibody complementary activation assay, novel complementary luciferase small subunits were prepared in this example. Large subunit-rSCFV5 fusion protein (SEQ ID NO: 87) was kept unchanged, and the small subunit sequence of the rSCFV18-RB073 fusion protein (SEQ ID NO: 89) were modified by semi-randomization. The theoretical diversity was 6912, the library capacity was 10^6, and 3,000 single clones were picked. The method of protein induction and expression was the same as that in Example 2.
Detection Methods: • (1) The concentration of large subunit-rSCFV5 fusion protein was diluted to 12.5 nM, and 15 µl was added per well; • (2) MBP-PCT fusion protein was diluted to 3.3 ng/ml with PBSAD, and 10 µl was added per well; • (3) HB2151 strain containing plasmids with different small subunit sequences were induced by IPTG at 30°C overnight, then treated with polymyxin B for 1.5h, and centrifuged to collect the supernatant, and 2.5µl supernatant was added per well; • (4) The above three components were slightly mixed, incubated at 37°C for 7 min, and Obuffer 6.37-3 containing Furimazine at a concentration of 25 µM was added, and after 3 min, the luminescence signal value was detected using a bioluminescence detector; and • (5) Clones with RLU higher than 10,000 were picked. The substrate was replaced with CTZ-h substrate for retesting (Obuffer 6.37-3 containing CTZ-h at a concentration of 25 µM was added, and after 60 s, the luminescence signal value was detected using a bioluminescence detector), and a PBSAD control was added to test the signal-to-noise ratio.

With VEGYRLFDRKS [RB073], the “activity (luminescence signal value), 3 min” value in the assay with PCT [1] (3 min after Furimazine 25 µM) came to 46672. The “activity (luminescence signal value), 6 min” value in the assay with PCT [1] (6 min after Furimazine 25 µM) amounted to 32973. Moreover, the “LLD (low limit of detection)” value in assay [2] is 0.79 pg/mL.
Consider VTGYRLFEEIL [P114, reference compound], for which the luminescence value is 5000 in the assay on PCT [3] (PCT 0.0, background); 5324 in the assay on PCT [3] (PCT 1 (pg/ml)); 5403 in the assay with PCT [3] (PCT 3 (pg/ml)); 5314 with PCT [3] (PCT 10 (pg/ml)); 5724 in the assay with PCT [3] (PCT 30 (pg/ml)); 5429 in the assay on PCT [3] (PCT 100 (pg/ml)). Besides, the luminescence value in the assay with PCT [3] (PCT 1000 (pg/ml)) was 18939; in the assay on PCT [3] (PCT 10000 (pg/ml)), 99257; in the assay on PCT [3] (PCT 100000 (pg/ml)), 804042; in the assay with PCT [3] (PCT 250000 (pg/ml)), 1431884. Further, the “Signal-to-noise ratio at 1000 pg/ml” value in the assay on PCT [3] (large subunit 8.3~25 nM, small subunit fusion 30~180 nM, CTZ-h 15 µM) was found to be 3.8. The Signal-to-noise ratio with PCT [4] (PCT+/PCT-, MBP-PCT 3.3 ng/ml, CTZ-h) was 1.9. Moreover, the “PCT+” value in the assay on PCT [4] (luminescence signal value with MBP-PCT 3.3 ng/ml, large subunit-rSCFV5 12.5 nM, CTZ-h 25 µM, 60 s) was 1493. In the assay with PCT [4] (luminescence signal value, PBSAD control without PCT, large subunit-rSCFV5 12.5 nM, CTZ-h 25 µM, 60 s), this sequence gave a PCT- of 786.
